How the values were obtained:
Experiment in all cases: relative viability (nuclei count vs DMSO), 5 days (fraction); higher = more cells survive
4EGI-1 + Navitoclax = compound: O=C(O)C(Cc1ccccc1[N+](=O)[O-])=NNc1nc(-c2ccc(Cl)c(Cl)c2)cs1 (mixture of isomers) [4EGI-1] + CC1(C)CCC(c2ccc(Cl)cc2)=C(CN2CCN(c3ccc(C(=O)NS(=O)(=O)c4ccc(N[C@H](CCN5CCOCC5)CSc5ccccc5)c(S(=O)(=O)C(F)(F)F)c4)cc3)CC2)C1 [Navitoclax] (partner 0.5 µM)
Outline: (§1)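 Relative viability equals treated-well nuclei counts divided by vehicle-well nuclei counts. Counts came from 4× images of lung cancer cell lines grown in 1536-well plates for 5 days after pin-tool dosing on the day after seeding. Dosing used one drug alone or a fixed anchor-drug dose plus five library-drug doses (not always all listed) in √10 steps, and values are medians of duplicate plates.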

XMD8-85 + Crizotinib = compound: CN1CCN(CC1)C2=CC(=C(C=C2)NC3=NC=C4C(=N3)N(C5=CC=CC=C5C(=O)N4C)C)OC [XMD8-85] + C[C@@H](Oc1cc(-c2cnn(C3CCNCC3)c2)cnc1N)c1c(Cl)ccc(F)c1Cl [Crizotinib] (partner 1 µM)
Outline: as §1

4EGI-1 + Dasatinib = compound: O=C(O)C(Cc1ccccc1[N+](=O)[O-])=NNc1nc(-c2ccc(Cl)c(Cl)c2)cs1 (mixture of isomers) [4EGI-1] + Cc1nc(Nc2ncc(C(=O)Nc3c(C)cccc3Cl)s2)cc(N2CCN(CCO)CC2)n1 [Dasatinib] (partner 0.075 µM)
Outline: as §1

4EGI-1 + Luminespib = compound: O=C(O)C(Cc1ccccc1[N+](=O)[O-])=NNc1nc(-c2ccc(Cl)c(Cl)c2)cs1 (mixture of isomers) [4EGI-1] + CCNC(=O)c1noc(-c2cc(C(C)C)c(O)cc2O)c1-c1ccc(CN2CCOCC2)cc1 [Luminespib] (partner 0.01 µM)
Outline: as §1

SW 1573
relative viability (4EGI-1 + Navitoclax; first compound 0.5 µM): 1.26
relative viability (4EGI-1 + Navitoclax; first compound 1.581 µM): 0.927
relative viability (4EGI-1 + Navitoclax; first compound 5 µM): 0.947
relative viability (4EGI-1 + Navitoclax; first compound 15.81 µM): 0.843
relative viability (4EGI-1 + Navitoclax; first compound 50 µM): 0.674
relative viability (XMD8-85 + Crizotinib; first compound 0.08 µM): 0.817
relative viability (XMD8-85 + Crizotinib; first compound 0.253 µM): 0.705
relative viability (XMD8-85 + Crizotinib; first compound 0.8 µM): 0.822
relative viability (XMD8-85 + Crizotinib; first compound 2.53 µM): 0.867
relative viability (XMD8-85 + Crizotinib; first compound 8 µM): 0.456
relative viability (4EGI-1 + Dasatinib; first compound 0.5 µM): 0.7
relative viability (4EGI-1 + Dasatinib; first compound 1.581 µM): 0.254
relative viability (4EGI-1 + Dasatinib; first compound 5 µM): 0.593
relative viability (4EGI-1 + Dasatinib; first compound 15.81 µM): 0.234
relative viability (4EGI-1 + Dasatinib; first compound 50 µM): 0.0967
relative viability (4EGI-1 + Luminespib; first compound 0.5 µM): 0.227
relative viability (4EGI-1 + Luminespib; first compound 1.581 µM): 0.198
relative viability (4EGI-1 + Luminespib; first compound 5 µM): 0.248
relative viability (4EGI-1 + Luminespib; first compound 15.81 µM): 0.168
relative viability (4EGI-1 + Luminespib; first compound 50 µM): 0.116

UMC-11
relative viability (4EGI-1 + Navitoclax; first compound 0.5 µM): 0.392
relative viability (4EGI-1 + Navitoclax; first compound 1.581 µM): 0.345
relative viability (4EGI-1 + Navitoclax; first compound 5 µM): 0.367
relative viability (4EGI-1 + Navitoclax; first compound 15.81 µM): 0.301
relative viability (4EGI-1 + Navitoclax; first compound 50 µM): 0.216
relative viability (XMD8-85 + Crizotinib; first compound 0.08 µM): 0.656
relative viability (XMD8-85 + Crizotinib; first compound 0.253 µM): 0.497
relative viability (XMD8-85 + Crizotinib; first compound 0.8 µM): 0.638
relative viability (XMD8-85 + Crizotinib; first compound 2.53 µM): 0.459
relative viability (XMD8-85 + Crizotinib; first compound 8 µM): 0.237
relative viability (4EGI-1 + Dasatinib; first compound 0.5 µM): 0.502
relative viability (4EGI-1 + Dasatinib; first compound 1.581 µM): 0.462
relative viability (4EGI-1 + Dasatinib; first compound 5 µM): 0.406
relative viability (4EGI-1 + Dasatinib; first compound 15.81 µM): 0.415
relative viability (4EGI-1 + Dasatinib; first compound 50 µM): 0.208
relative viability (4EGI-1 + Luminespib; first compound 0.5 µM): 1.07
relative viability (4EGI-1 + Luminespib; first compound 1.581 µM): 1.21
relative viability (4EGI-1 + Luminespib; first compound 5 µM): 0.999
relative viability (4EGI-1 + Luminespib; first compound 15.81 µM): 0.99
relative viability (4EGI-1 + Luminespib; first compound 50 µM): 0.598

NCI-H1651
relative viability (4EGI-1 + Navitoclax; first compound 0.5 µM): 1.17
relative viability (4EGI-1 + Navitoclax; first compound 1.581 µM): 0.914
relative viability (4EGI-1 + Navitoclax; first compound 5 µM): 0.965
relative viability (4EGI-1 + Navitoclax; first compound 15.81 µM): 1.01
relative viability (4EGI-1 + Navitoclax; first compound 50 µM): 0.33
relative viability (XMD8-85 + Crizotinib; first compound 0.08 µM): 0.924
relative viability (XMD8-85 + Crizotinib; first compound 0.253 µM): 0.855
relative viability (XMD8-85 + Crizotinib; first compound 0.8 µM): 0.822
relative viability (XMD8-85 + Crizotinib; first compound 2.53 µM): 0.836
relative viability (XMD8-85 + Crizotinib; first compound 8 µM): 0.772
relative viability (4EGI-1 + Dasatinib; first compound 0.5 µM): 0.36
relative viability (4EGI-1 + Dasatinib; first compound 1.581 µM): 0.377
relative viability (4EGI-1 + Dasatinib; first compound 5 µM): 0.44
relative viability (4EGI-1 + Dasatinib; first compound 15.81 µM): 0.346
relative viability (4EGI-1 + Dasatinib; first compound 50 µM): 0.174
relative viability (4EGI-1 + Luminespib; first compound 0.5 µM): 0.975
relative viability (4EGI-1 + Luminespib; first compound 1.581 µM): 0.658
relative viability (4EGI-1 + Luminespib; first compound 5 µM): 1.01
relative viability (4EGI-1 + Luminespib; first compound 15.81 µM): 0.933
relative viability (4EGI-1 + Luminespib; first compound 50 µM): 0.924

H3255
relative viability (4EGI-1 + Navitoclax; first compound 0.5 µM): 0.587
relative viability (4EGI-1 + Navitoclax; first compound 1.581 µM): 0.477
relative viability (4EGI-1 + Navitoclax; first compound 5 µM): 0.557
relative viability (4EGI-1 + Navitoclax; first compound 15.81 µM): 0.137
relative viability (4EGI-1 + Navitoclax; first compound 50 µM): 0.368
relative viability (XMD8-85 + Crizotinib; first compound 0.08 µM): 0.808
relative viability (XMD8-85 + Crizotinib; first compound 0.253 µM): 0.853
relative viability (XMD8-85 + Crizotinib; first compound 0.8 µM): 0.822
relative viability (XMD8-85 + Crizotinib; first compound 2.53 µM): 0.902
relative viability (XMD8-85 + Crizotinib; first compound 8 µM): 0.52
relative viability (4EGI-1 + Dasatinib; first compound 0.5 µM): 0.361
relative viability (4EGI-1 + Dasatinib; first compound 1.581 µM): 0.321
relative viability (4EGI-1 + Dasatinib; first compound 5 µM): 0.412
relative viability (4EGI-1 + Dasatinib; first compound 15.81 µM): 0.324
relative viability (4EGI-1 + Dasatinib; first compound 50 µM): 0.322
relative viability (4EGI-1 + Luminespib; first compound 0.5 µM): 1.07
relative viability (4EGI-1 + Luminespib; first compound 1.581 µM): 0.674
relative viability (4EGI-1 + Luminespib; first compound 5 µM): 0.991
relative viability (4EGI-1 + Luminespib; first compound 15.81 µM): 0.621
relative viability (4EGI-1 + Luminespib; first compound 50 µM): 0.733

NCI-H1975
relative viability (4EGI-1 + Navitoclax; first compound 0.5 µM): 1.2
relative viability (4EGI-1 + Navitoclax; first compound 1.581 µM): 1.05
relative viability (4EGI-1 + Navitoclax; first compound 5 µM): 0.984
relative viability (4EGI-1 + Navitoclax; first compound 15.81 µM): 1.08
relative viability (4EGI-1 + Navitoclax; first compound 50 µM): 1.18
relative viability (XMD8-85 + Crizotinib; first compound 0.08 µM): 1.08
relative viability (XMD8-85 + Crizotinib; first compound 0.253 µM): 0.827
relative viability (XMD8-85 + Crizotinib; first compound 0.8 µM): 1.07
relative viability (XMD8-85 + Crizotinib; first compound 2.53 µM): 0.937
relative viability (XMD8-85 + Crizotinib; first compound 8 µM): 0.352
relative viability (4EGI-1 + Dasatinib; first compound 0.5 µM): 0.372
relative viability (4EGI-1 + Dasatinib; first compound 1.581 µM): 0.363
relative viability (4EGI-1 + Dasatinib; first compound 5 µM): 0.302
relative viability (4EGI-1 + Dasatinib; first compound 15.81 µM): 0.282
relative viability (4EGI-1 + Dasatinib; first compound 50 µM): 0.249
relative viability (4EGI-1 + Luminespib; first compound 0.5 µM): 0.337
relative viability (4EGI-1 + Luminespib; first compound 5 µM): 0.214
relative viability (4EGI-1 + Luminespib; first compound 15.81 µM): 0.261
relative viability (4EGI-1 + Luminespib; first compound 50 µM): 0.159

BEN
relative viability (4EGI-1 + Navitoclax; first compound 0.5 µM): 0.0672
relative viability (4EGI-1 + Navitoclax; first compound 1.581 µM): 0.0661
relative viability (4EGI-1 + Navitoclax; first compound 5 µM): 0.0652
relative viability (4EGI-1 + Navitoclax; first compound 15.81 µM): 0.0675
relative viability (4EGI-1 + Navitoclax; first compound 50 µM): 0.0686
relative viability (XMD8-85 + Crizotinib; first compound 0.08 µM): 0.744
relative viability (XMD8-85 + Crizotinib; first compound 0.253 µM): 0.865
relative viability (XMD8-85 + Crizotinib; first compound 2.53 µM): 0.608
relative viability (XMD8-85 + Crizotinib; first compound 8 µM): 0.447
relative viability (4EGI-1 + Dasatinib; first compound 0.5 µM): 0.328
relative viability (4EGI-1 + Dasatinib; first compound 1.581 µM): 0.302
relative viability (4EGI-1 + Dasatinib; first compound 5 µM): 0.329
relative viability (4EGI-1 + Dasatinib; first compound 15.81 µM): 0.282
relative viability (4EGI-1 + Dasatinib; first compound 50 µM): 0.233
relative viability (4EGI-1 + Luminespib; first compound 0.5 µM): 0.371
relative viability (4EGI-1 + Luminespib; first compound 1.581 µM): 0.332
relative viability (4EGI-1 + Luminespib; first compound 5 µM): 0.318
relative viability (4EGI-1 + Luminespib; first compound 15.81 µM): 0.331
relative viability (4EGI-1 + Luminespib; first compound 50 µM): 0.152

LC-2-ad
relative viability (4EGI-1 + Navitoclax; first compound 0.5 µM): 0.536
relative viability (4EGI-1 + Navitoclax; first compound 1.581 µM): 0.486
relative viability (4EGI-1 + Navitoclax; first compound 5 µM): 0.398
relative viability (4EGI-1 + Navitoclax; first compound 15.81 µM): 0.25
relative viability (4EGI-1 + Navitoclax; first compound 50 µM): 0.0791
relative viability (XMD8-85 + Crizotinib; first compound 0.08 µM): 0.442
relative viability (XMD8-85 + Crizotinib; first compound 0.253 µM): 0.446
relative viability (XMD8-85 + Crizotinib; first compound 0.8 µM): 0.462
relative viability (XMD8-85 + Crizotinib; first compound 2.53 µM): 0.444
relative viability (XMD8-85 + Crizotinib; first compound 8 µM): 0.303
relative viability (4EGI-1 + Dasatinib; first compound 0.5 µM): 0.697
relative viability (4EGI-1 + Dasatinib; first compound 5 µM): 0.651
relative viability (4EGI-1 + Dasatinib; first compound 15.81 µM): 0.199
relative viability (4EGI-1 + Dasatinib; first compound 50 µM): 0.161
relative viability (4EGI-1 + Luminespib; first compound 0.5 µM): 1.13
relative viability (4EGI-1 + Luminespib; first compound 5 µM): 0.906
relative viability (4EGI-1 + Luminespib; first compound 15.81 µM): 0.385
relative viability (4EGI-1 + Luminespib; first compound 50 µM): 0.269

NCI-H2085
relative viability (4EGI-1 + Navitoclax; first compound 0.5 µM): 1.19
relative viability (4EGI-1 + Navitoclax; first compound 1.581 µM): 1.01
relative viability (4EGI-1 + Navitoclax; first compound 5 µM): 1.2
relative viability (4EGI-1 + Navitoclax; first compound 15.81 µM): 0.931
relative viability (4EGI-1 + Navitoclax; first compound 50 µM): 0.743
relative viability (XMD8-85 + Crizotinib; first compound 0.08 µM): 0.76
relative viability (XMD8-85 + Crizotinib; first compound 0.253 µM): 0.738
relative viability (XMD8-85 + Crizotinib; first compound 0.8 µM): 0.795
relative viability (XMD8-85 + Crizotinib; first compound 2.53 µM): 0.859
relative viability (XMD8-85 + Crizotinib; first compound 8 µM): 0.559
relative viability (4EGI-1 + Dasatinib; first compound 0.5 µM): 0.318
relative viability (4EGI-1 + Dasatinib; first compound 1.581 µM): 0.229
relative viability (4EGI-1 + Dasatinib; first compound 5 µM): 0.272
relative viability (4EGI-1 + Dasatinib; first compound 15.81 µM): 0.216
relative viability (4EGI-1 + Dasatinib; first compound 50 µM): 0.271
relative viability (4EGI-1 + Luminespib; first compound 0.5 µM): 0.461
relative viability (4EGI-1 + Luminespib; first compound 1.581 µM): 0.452
relative viability (4EGI-1 + Luminespib; first compound 5 µM): 0.468
relative viability (4EGI-1 + Luminespib; first compound 15.81 µM): 0.396
relative viability (4EGI-1 + Luminespib; first compound 50 µM): 0.355

— the supplement of paper PMC10307832
